Source: patent US9241487B2, “Pyrimidine derivatives and use thereof as pesticides” (BAYER INTELLECTUAL PROPERTY GMBH, priority 2010, dated 2016)

Tests used:
Format in all cases: in vivo
Pyrenophora teres = Pyrenophora teres test (barley)/protective; details: protective spray, evaluation 7-9 days after inoculation
Description: Pyrenophora teres Test (Barley)/Protective
Solvent: 49 parts by weight of N,N-dimethylacetamide
(§1) Emulsifier: 1 part by weight of alkylaryl polyglycol ether
(§2) To produce a suitable preparation of active compound, 1 part by weight of active compound is mixed with the stated amounts of solvent and emulsifier, and the concentrate is diluted with water to the desired concentration. To test for protective activity, young plants are sprayed with the preparation of active compound at the stated application rate. 1 day after this treatment, the plants are inoculated with an aqueous spore suspension of Pyrenophora teres. The plants remain in an incubation cabin at 20° C. and 100% relative atmospheric humidity for 48 hours. The plants are placed in a greenhouse at a temperature of about 20° C. and a relative atmospheric humidity of about 80%. Evaluation is carried out 7-9 days after the inoculation. 0% means an efficacy which corresponds to that of the control, whereas an efficacy of 100% means that no infection is observed.

Sphaerotheca fuliginea = experiment: Sphaerotheca test (cucumber)/protective; details: Podosphaera fuliginea, 168 h, cucumber plants, protective spray, evaluation 7 days after inoculation, read-out: Efficacy (%)
Description: Sphaerotheca Test (Cucumber)/Protective
Solvent: 49 parts by weight of N,N-dimethylformamide
as §1
To produce a suitable preparation of active compound, 1 part by weight of active compound is mixed with the stated amounts of solvent and emulsifier, and the concentrate is diluted with water to the desired concentration. To test for protective activity, young cucumber plants are sprayed with the preparation of active compound at the stated application rate. 1 day after the treatment, the plants are inoculated with a spore suspension of Sphaerotheca fuliginea. The plants are then placed in a greenhouse at 70% relative air humidity and a temperature of 23° C. Evaluation follows 7 days after the inoculation. 0% means an efficacy which corresponds to that of the control, whereas an efficacy of 100% means that no infection is observed. In this test, the following compounds according to the invention show, at an active compound concentration of 500 ppm, an efficacy of 70% or more: […]

Venturia inaequalis = experiment: Venturia test (apple)/protective; details: 240 h, protective spray, evaluation 10 days after inoculation, read-out: Efficacy (%)
Description: Venturia Test (Apple)/Protective
Solvents: 24.5 parts by weight of acetone
• 24.5 parts by weight of dimethylacetamide Emulsifier: 1 part by weight of alkylaryl polyglycol ether
To produce a suitable preparation of active compound, 1 part by weight of active compound is mixed with the stated amounts of solvent and emulsifier, and the concentrate is diluted with water to the desired concentration. To test for protective activity, young plants are sprayed with the preparation of active compound at the stated application rate. After the spray coating has dried on, the plants are inoculated with an aqueous conidia suspension of the apple scab pathogen Venturia inaequalis and then remain in an incubation cabin at approx. 20° C. and 100% relative air humidity for 1 day. The plants are then placed in the greenhouse at about 21° C. and a relative atmospheric humidity of about 90%. Evaluation follows 10 days after the inoculation. 0% means an efficacy which corresponds to that of the control, whereas an efficacy of 100% means that no infection is observed.
In this test, the following compounds according to the invention show, at an active compound concentration of 100 ppm, an efficacy of 70% or more: […]

Phakopsora pachyrhizi = Phakopsora pachyrhizi test (soya bean)/protective; details: protective spray, 100 ppm, evaluation 11 days after inoculation
Description: Phakopsora pachyrhizi Test (Soya Bean)/Protective
Solvent: 28.5 parts by weight of acetone
Emulsifier: 1.5 part by weight of polyoxyethylene alkylphenyl ether
as §2, with “spraying,” for “this treatment,”, “the soya bean rust pathogen (Phakopsora pachyrhizi).” for “Pyrenophora teres. The plants remain in an incubation cabin at 20° C. and 100% relative atmospheric humidity for 48 hours.”, “follows 11” for “is carried out 7-9”
In this test, the following compounds according to the invention show, at an active compound concentration of 100 ppm, an efficacy of 80% or more: […]

Compound	Efficacy (%) (Pyrenophora teres; 100 ppm)	Efficacy (%) (Pyrenophora teres; 500 ppm)	pest or weed control at 500 ppm (Sphaerotheca fuliginea) [%]	pest or weed control at 100 ppm (Venturia inaequalis) [%]	Efficacy (%) (Phakopsora pachyrhizi)
CC(C)C(O)(COc1ccc(OC(F)(F)F)cc1)c1cncnc1 (stereo not drawn) [Compound 2]	0	0	99	94	–
CC(C)(C)C(O)(COc1ccc(OC(F)(F)F)cc1)c1cncnc1 (stereo not drawn) [Compound 12]	60	95	100	99	98
CC(C)(C)C(O)(COc1ccc(SC(F)(F)F)cc1)c1cncnc1 (stereo not drawn) [Compound 17]	–	–	95	100	97
CC1(C(O)(COc2ccc(OC(F)(F)F)cc2)c2cncnc2)CC1 (stereo not drawn) [Compound 18]	–	–	95	99	98
